Reference: ChEMBL document CHEMBL4725326, “Synthesis, α-glucosidase inhibition, and molecular docking studies of novel N-substituted hydrazide derivatives of atranorin as antidiabetic agents” (Bioorg Med Chem Lett, 2020)

Tests used:
[1] = Inhibition of alpha-glucosidase (unknown origin); design: species or system Homo sapiens
[2] = test system: HEK293; test: Cytotoxicity against HEK293 cells assessed as reduction in cell viability; assay type: cell-based; settings: Homo sapiens

## COC(=O)c1c(C)cc(OC(=O)c2c(C)cc(O)c(/C=N/NC(=O)COc3ccc(C)cc3)c2O)c(C)c1O
[1]
  IC50: 54.7 µM
[2]
  IC50: > 100 µM

## COC(=O)c1c(C)cc(OC(=O)c2c(C)cc(O)c(/C=N/NC(=O)CSc3nc4ccccc4s3)c2O)c(C)c1O
[1]
  IC50: 9.12 µM
[2]
  IC50: 70.1 µM

## COC(=O)c1c(C)cc(OC(=O)c2c(C)cc(O)c(/C=N/NC(=O)COc3ccccc3C)c2O)c(C)c1O
[1]
  IC50: 53.3 µM
[2]
  IC50: > 100 µM

## COC(=O)c1c(C)cc(OC(=O)c2c(C)cc(O)c(/C=N/NC(=O)COc3cccc(C)c3)c2O)c(C)c1O
[1]
  IC50: 40.6 µM
[2]
  IC50: > 100 µM

## COC(=O)c1c(C)cc(OC(=O)c2c(C)cc(O)c(/C=N/NC(=O)c3cc(Cl)ccc3O)c2O)c(C)c1O
[1]
  IC50: 9.91 µM
[2]
  IC50: 63.2 µM

## COC(=O)c1c(C)cc(OC(=O)c2c(C)cc(O)c(/C=N/NC(=O)COc3ccc(Br)cc3)c2O)c(C)c1O
[1]
  IC50: 17.3 µM
[2]
  IC50: > 100 µM

## COC(=O)c1c(C)cc(OC(=O)c2c(C)cc(O)c(/C=N/NC(=O)COc3cc4ccccc4o3)c2O)c(C)c1O
[1]
  IC50: 39.7 µM
[2]
  IC50: 84.4 µM

## COC(=O)c1c(C)cc(OC(=O)c2c(C)cc(O)c(/C=N/NC(=O)CNc3ccc(C)cc3)c2O)c(C)c1O
[1]
  IC50: 31.5 µM
[2]
  IC50: > 100 µM

## COC(=O)c1c(C)cc(OC(=O)c2c(C)cc(O)c(/C=N/NC(=O)COc3ccc4ccccc4c3)c2O)c(C)c1O
[1]
  IC50: 18.9 µM
[2]
  IC50: 52.7 µM

## COC(=O)c1c(C)cc(OC(=O)c2c(C)cc(O)c(/C=N/NC(=O)c3cc(I)ccc3O)c2O)c(C)c1O
[1]
  IC50: 41.2 µM
[2]
  IC50: 94.1 µM

## COC(=O)c1c(C)cc(OC(=O)c2c(C)cc(O)c(/C=N/NC(=O)Cc3ccccc3)c2O)c(C)c1O
[1]
  IC50: 6.67 µM
[2]
  IC50: > 100 µM

## COC(=O)c1c(C)cc(OC(=O)c2c(C)cc(O)c(/C=N/NC(=O)COc3cc(C)ccc3C(C)C)c2O)c(C)c1O
[1]
  IC50: 28.1 µM
[2]
  IC50: > 100 µM

## C[C@H]1O[C@H](O[C@H]2[C@H](O)[C@@H](O)[C@@H](O[C@H]3[C@H](O)[C@@H](O)C(O)O[C@@H]3CO)O[C@@H]2CO)[C@H](O)[C@@H](O)[C@@H]1N[C@H]1C=C(CO)[C@@H](O)[C@H](O)[C@H]1O (some centres not stated) [ACARBOSE]
[1]
  IC50: 93.6 µM

## COC(=O)c1c(C)cc(OC(=O)c2c(C)cc(O)c(C=O)c2O)c(C)c1O [ATRANORIN]
[1]
  IC50: > 100 µM

## COc1cccc2c1C(=O)c1c(O)c3c(c(O)c1C2=O)C[C@@](O)(C(=O)CO)C[C@@H]3O[C@H]1C[C@H](N)[C@H](O)[C@H](C)O1 [DOXORUBICIN]
[2]
  IC50: 7.92 µM
